Values quoted from earlier work, collected in patent publication US10517870B2, “Aryl substituted bicycle heteroaryl compounds” (Bristol-Myers Squibb Company, priority 2015, dated 2019).

Columns and labels:
[1] = molecular target: T1, protease-activated receptor type 4 (PAR4) (Homo sapiens, UniProt Q96RI0); conditions: Lee et al., J. Med. Chem. 2001; cited from earlier work
T1 sequence (Q96RI0 18-385): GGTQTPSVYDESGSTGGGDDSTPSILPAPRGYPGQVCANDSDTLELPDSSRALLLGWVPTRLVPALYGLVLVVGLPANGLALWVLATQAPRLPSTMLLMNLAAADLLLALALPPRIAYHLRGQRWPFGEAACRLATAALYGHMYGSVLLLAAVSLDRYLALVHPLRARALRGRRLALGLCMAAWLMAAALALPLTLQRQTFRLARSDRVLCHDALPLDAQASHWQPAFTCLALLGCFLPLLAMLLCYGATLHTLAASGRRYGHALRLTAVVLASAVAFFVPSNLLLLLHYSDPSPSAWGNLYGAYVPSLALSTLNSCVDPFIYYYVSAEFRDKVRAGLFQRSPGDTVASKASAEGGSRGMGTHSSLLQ

[2] = ACS patients, TRACER phase III trial; cited from earlier work

Row | Compound | inhibition of PAR4-dependent platelet activation [1] | cardiovascular events [2] | risk of major bleeding [2]
1 | CCOC(=O)c1ccc(-c2nn(Cc3ccccc3)c3ccccc23)cc1 [YD-3] | selective and potent inhibitor |  | 
2 | CCOC(=O)N[C@@H]1CC[C@@H]2[C@@H](C1)C[C@H]1C(=O)O[C@H](C)[C@H]1[C@H]2/C=C/c1ccc(-c2cccc(F)c2)cn1 [vorapaxar] |  | did not significantly reduce cardiovascular events | significantly increased the risk of major bleeding
